This note sets out measurements from the METLIN SMRT retention time set (Domingo-Almenara et al. 2019).

The data set is described as follows: gradient 5% acetonitrile 3 min, to 50% in 2 min, to 85% in 15 min, held 3 min, 100 µL/min. Conditions: column: Zorbax Extend-C18 2.1 x 50 mm; eluents: water / acetonitrile, 0.1% formic acid. The procedure, abridged: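 Over 3 months, pure standards in mixtures of ~100 molecules were run by HPLC coupled to a quadrupole time-of-flight mass spectrometer in positive and negative ionization mode. The column was a Zorbax Extend-C18 (2.1 × 50 mm, 1.8 μm) at 100 μL/min, eluted with water and acetonitrile each holding 0.1% formic acid, with 40 μL dead and 900 μL dwell volumes. Retention time was determined from adduct peaks chosen by software and checked manually.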
As for `Cc1nc(-c2noc(-c3ccccc3)n2)cn1CC(=O)N1CCN(c2ccc(F)cc2)CC1`, the RP-LC retention time stood at 868 s.

`CN(C)C(=O)c1csc(S(=O)(=O)N2CCC(C(=O)Nc3ccccc3F)CC2)c1` had an RP-LC retention time of 770 s.

Compound `Cc1ccc(C)c(NC(=O)N2CCC(N3CCN(Cc4cccc(F)c4)C(=O)C3=O)CC2)c1` yielded an RP-LC retention time of 767 s.

The compound `Cn1cnc(S(=O)(=O)N2CC(Oc3ccc(-c4nc(-c5ccccc5)no4)cc3)C2)c1` gave an RP-LC retention time of 983 s.

`Cn1c(=O)c(-c2noc(C(=O)N3CCN(c4ccccn4)CC3)n2)nn(-c2ccc(F)cc2)c1=O` showed an RP-LC retention time of 666 s.

`O=C(CSc1nnc(Cc2ccccc2)o1)N1CCOCC1` gave an RP-LC retention time of 636 s.

Compound `Cc1ccccc1NC(=O)CSc1nnc2c3cc(-c4ccccc4)nn3ccn12` had an RP-LC retention time of 841 s.

Turning to `CCc1noc([C@@H]2CC(F)(F)CN2C(=O)Cn2ccnc2)n1`, the RP-LC retention time was determined as 570 s.

Consider `COc1ccc(N2CCN(C(=O)Cn3cccc3-c3nnc(-c4ccccc4)o3)CC2)cc1`, for which the RP-LC retention time is 907 s.

The compound `C=CCn1c(=O)c(=O)n(Cc2ccc(C(=O)N3CCN(c4ccccn4)CC3)cc2)c2ccccc21` registered an RP-LC retention time of 626 s.

With `CCC(=O)N1CCc2c(C(=O)N3CCOCC3)cccc21`, the RP-LC retention time was found to be 630 s.

`COc1cccc2cc(C(=O)Nc3nc(-c4ccc(Cl)cc4)cs3)c(=O)oc12` had an RP-LC retention time of 1290 s.

`Cc1nc2cc(-c3noc(-c4ccc(C#N)cc4F)n3)ccc2o1` came in with an RP-LC retention time of 1000 s.

With `CCN1CCN(C(=O)C2CCN(c3nnc(-c4ccc(OC)cc4)o3)CC2)CC1`, the RP-LC retention time amounted to 593 s.

In turn, `COc1ccc2[nH]c3c(c2c1)CCNC31CCN(C(=O)C2CCN2C2CCCCC2)CC1` (stereo not given) showed an RP-LC retention time of 576 s.

`Cc1ccc(OCC(=O)Nc2nnc(SCc3nnc(-c4ccccc4)o3)s2)c(C)c1` gave an RP-LC retention time of 998 s.

Take `Cc1ccc(CNC(=O)C2Cn3cccc3C(=O)N2)o1` (stereo not given): the RP-LC retention time came out at 633 s.

Regarding `CCc1nc2nccc(-c3ccc(OC)c(OC)c3)n2n1`, the RP-LC retention time was 702 s.

Take `COc1cccc(C(=O)N2C[C@@H]3C[C@H](NC(=O)c4cccnc4)[C@H]2C3)c1OC`: the RP-LC retention time stood at 619 s.

As to `CCc1noc(NC(C)=O)c1-c1ccc(C)c(S(=O)(=O)Nc2cc(C)ccc2C)c1`, the RP-LC retention time is 900 s.

`CC(C)n1cc2cc(C(=O)N(C)CCc3ccncc3)sc2c1` returned an RP-LC retention time of 709 s.

For the compound `CCCOc1nccnc1N1CCC(N(C)C(=O)c2ccc(C)nc2)C1` (stereo not given), the RP-LC retention time was determined as 657 s.

In turn, `CCc1nc(N)n(CC(=O)Nc2cc(F)ccc2C)c(=O)c1C` displayed an RP-LC retention time of 620 s.

The compound `CCCCn1c(CN2CCCC2)nc2cc(NC(=O)CC)ccc21` displayed an RP-LC retention time of 605 s.

For `COc1ccc(NC(=O)N2CC3CN(C)CC(C2)O3)cc1`, the RP-LC retention time is 560 s.

`CCOC(=O)Cc1ccc(NC(=O)NC2CCN(c3ccc(C)cc3)C2=O)cc1` (stereo not given) gave an RP-LC retention time of 784 s.

Compound `Cc1nnc(-c2ccc3ccn(CC(=O)N4CCCCC4)c3c2)o1` returned an RP-LC retention time of 748 s.

The compound `COc1ccc2[nH]c(-c3ccccc3)cc2c1` came in with an RP-LC retention time of 1040 s.

Take `CCOC(=O)CNC(=O)CSc1nnc(NC(=O)c2nc3ccccc3s2)s1`: the RP-LC retention time is 736 s.

Compound `CCOc1cccc(C2CC(c3cccc(OC)c3)=NC3(CCN(C(C)C)CC3)N2)c1O` (stereo not given) displayed an RP-LC retention time of 618 s.

Consider `COc1ccc(OC)c(CN2CCn3c(nn(CC4CC4)c3=O)C2)c1`, for which the RP-LC retention time was 620 s.

Compound `CCNC(=O)c1nc(C(=O)NCc2ccccc2F)cs1` registered an RP-LC retention time of 765 s.

In turn, `COc1cc(OC)cc(C(=O)N2CCc3cn(C)c4cccc(c34)C2)c1` displayed an RP-LC retention time of 952 s.

As to `COc1cc(Cl)ccc1C(=O)N1CCN(c2cc(-c3ccc(Cl)cc3)[nH]n2)CC1`, the RP-LC retention time worked out at 923 s.

`CC(C)NC(=O)C1COC2(CCN(C(=O)c3cccc(Cl)c3)CC2)N1C(=O)c1ccccc1` (stereo not given) registered an RP-LC retention time of 725 s.

In turn, `COc1ccc(C2C(C(=O)O)CCC(=O)N2c2ccc(OC)cc2)cc1` (stereo not given) had an RP-LC retention time of 656 s.

Turning to `COc1ccc(-c2cn3c(CC(=O)Nc4ccc(C(F)(F)F)cc4)csc3n2)cc1`, the RP-LC retention time stood at 869 s.

`COCC1(O)CCOC2(CCN(C(=O)c3cccs3)CC2)C1` (stereo not given) displayed an RP-LC retention time of 621 s.

`COC[C@@H]1CN(S(=O)(=O)c2ccccc2F)C[C@H]1c1ccncc1` yielded an RP-LC retention time of 745 s.

As for `CCn1ccc2sc(C)c(C(=O)NCCC(C)C)c2c1=O`, the RP-LC retention time amounted to 806 s.

With `CN1C(=O)[C@H]2CN(Cc3cccc(OC(F)(F)F)c3)C[C@H]2C1=O`, the RP-LC retention time amounted to 682 s.

`Cc1cc(NC(=O)C2CCCN(c3ccc(-c4ccc(Cl)cc4)nn3)C2)on1` (stereo not given) returned an RP-LC retention time of 685 s.

Take `O=C(NCC1CCCO1)c1cccc(Nc2c(-c3ccccc3)nc3cnccn23)c1` (stereo not given): the RP-LC retention time was determined as 679 s.

Turning to `CCOc1cc(-c2nc(C3CC(=O)N(c4ccc(CC)cc4)C3)no2)cc(OCC)c1OCC` (stereo not given), the RP-LC retention time came to 1300 s.

As for `O=C(Nc1nc(-c2ccc(F)cc2)cs1)c1c(-c2ccc(F)cc2)nc2n1CCS2(=O)=O`, the RP-LC retention time was 1050 s.

As to `Cc1nnc(-c2ccc3ccn(CC(=O)Nc4cccc(Cl)c4)c3c2)o1`, the RP-LC retention time amounted to 847 s.

Turning to `O=C(O)c1cnc(N2CCOCC2)nc1-c1ccccn1`, the RP-LC retention time is 604 s.

Take `CCc1noc(-c2ccnc(-n3cnc(C(=O)NC(C)C)c3)c2)n1`: the RP-LC retention time came out at 784 s.

`COc1cccc(C2Cn3nnc(-c4nc(-c5ccc(SC)cc5)no4)c3CO2)c1` (stereo not given) gave an RP-LC retention time of 1200 s.

In the case of `CCc1nc(-c2ccc3c(c2)CCN3C(=O)Cc2ccc(F)cc2)no1`, the RP-LC retention time was 1030 s.

On to `COc1cc(OC)cc(C(=O)N(C)CCc2noc(-c3ccc(C(=O)N4CCCC4)cc3)n2)c1`, for which the RP-LC retention time came out at 759 s.

`O=C(NCC1(CO)CC1)c1ccccc1F` showed an RP-LC retention time of 599 s.

The compound `CCCn1cc(C2=CCN(C(=O)NC3CCCCC3)CC2)c2cccnc21` yielded an RP-LC retention time of 943 s.

As for `Cc1ccc(NC(=O)C2CCN(S(C)(=O)=O)c3cc(Cl)ccc3O2)cc1` (stereo not given), the RP-LC retention time turned out to be 1010 s.

With `COc1ccc(-c2nnc(-c3cccc(S(=O)(=O)N(C)C)c3)o2)cc1OC`, the RP-LC retention time was 816 s.

The compound `NC1=C(Br)C(=O)c2ncccc2C1=O` showed an RP-LC retention time of 599 s.

With `Cc1ccc(NC(=O)Cn2cnc3nc4c(cc3c2=O)CCCC4)c(C)c1`, the RP-LC retention time is 734 s.

In the case of `CCC1Oc2ccc(S(=O)(=O)N3CCC(C(=O)Nc4ccccc4Cl)CC3)cc2NC1=O` (stereo not given), the RP-LC retention time amounted to 907 s.

Compound `Cc1cc(C)cc(N2CCC(NC(=O)NC(C)C)C2=O)c1` (stereo not given) displayed an RP-LC retention time of 736 s.

Turning to `CCN1CCN(c2c(S(=O)(=O)c3ccc(OC)cc3)cnc3ccc(OC)cc23)CC1`, the RP-LC retention time came to 640 s.

`Cc1cc(NC(=O)Cn2nc(N(C)C)c3ccccc3c2=O)ccc1Br` displayed an RP-LC retention time of 995 s.

Turning to `CC(C)NC(=O)CN1CCN(c2cc(C(=O)O)c3cc(NC(=O)c4ccc(F)cc4)ccc3n2)CC1`, the RP-LC retention time stood at 603 s.

Consider `Cc1nc(-c2csc(S(=O)(=O)N3CCC(C(=O)NC(C)Cc4ccco4)CC3)c2)no1` (stereo not given), for which the RP-LC retention time worked out at 843 s.

Take `CCNC(=O)c1nc(C(=O)NC2CCCCC2)cs1`: the RP-LC retention time turned out to be 783 s.

The compound `CCOc1ccc(C(=O)NCc2c(C)noc2C)cc1OCC` showed an RP-LC retention time of 757 s.

`CCCN1C(=O)COc2ccc(-c3csc(NC(=O)C(C)C)n3)cc21` had an RP-LC retention time of 918 s.

`CCn1c(=O)sc2cc(S(=O)(=O)N3CCC(C(=O)Nc4cc(C)cc(C)c4)CC3)ccc21`: the RP-LC retention time was determined as 932 s.

`CCc1ccc(Nc2ncccc2S(N)(=O)=O)cc1` registered an RP-LC retention time of 891 s.

`CCOc1ccc(-c2noc(-c3nc(C)no3)n2)cc1` showed an RP-LC retention time of 986 s.

For the compound `CC1CCCN(S(=O)(=O)c2cc(C(=O)N3CCCc4ccccc43)n(C)c2)C1` (stereo not given), the RP-LC retention time worked out at 1060 s.

In turn, `CCOc1ccc(-c2csc3c(=O)n(Cc4cccnc4)cnc23)cc1OCC` returned an RP-LC retention time of 699 s.

In the case of `Cc1ccc(-c2nc(-c3ccc4c(c3)ncn4CCN3CCOCC3)no2)cc1C`, the RP-LC retention time was 685 s.

With `CC(C)c1cc(-c2nnc3sc(COc4ccc(Cl)cc4)nn23)n[nH]1`, the RP-LC retention time was 900 s.

Turning to `Cc1ccc(CNC(=O)C(=O)NCC(c2ccc3c(c2)CCCN3C)N2CCOCC2)cc1` (stereo not given), the RP-LC retention time is 610 s.

The compound `CC(C)N1C(=O)Cc2ccccc2C1C(=O)NCc1ccccc1Br` (stereo not given) showed an RP-LC retention time of 825 s.

`O=C(CN1CC(c2nc(Cc3ccccc3)no2)C1)NCc1ccc(F)cc1`: the RP-LC retention time was 595 s.

`CCOc1ccc(NC(=O)c2oc3ccccc3c2C)c2cccnc12` returned an RP-LC retention time of 698 s.

Take `Cc1cccc(NC(=O)N2CCC3(CC2)NC(=O)c2ccccc2O3)c1C`: the RP-LC retention time was 775 s.

Consider `O=C1NC2(CCN(C(=O)NCc3ccc(F)cc3)CC2)Nc2c(Cl)cccc21`, for which the RP-LC retention time was 770 s.

`CCn1cc(C(=O)NCCn2c(C)cnc2C2CCC2)cn1` had an RP-LC retention time of 557 s.
